Experimental data reported in patent publication US9833497B2, “Human originated EGF domain proteins and use of the same” (CHENGDU SOURCEBIO LIMITED-LIABILITY COMPANY, priority 2013, dated 2017).

How the values were obtained:
Format in all cases: cell-based
[1] = system: E. coli DH5α; assay: Antibacterial activity: MIC and growth curve against E. coli DH5α in 96-well plate; conditions: minimal inhibitory concentration against E. coli DH5α; 96-well plate, 5×10^5 CFU/mL, 37° C., judged after 8 h
Procedure, shortened: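 Log-phase bacteria (OD600 ~0.5) resuspended in LB at 5×10^5 CFU/mL, exposed to recombinant protein at 50, 25, 12.5 μg/mL final in triplicate, 37 °C shaking at 175 rpm. OD600 read every 30 min; MIC is lowest concentration showing no growth.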

[2] = system: Pseudomonas aeruginosa; assay: MIC against Gram-negative bacteria: Pseudomonas aeruginosa; conditions: 5×10^5 CFU/mL
Procedure, shortened: (§1)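 First, colonies from LB agar were grown in LB at 37° C, 185 rpm, to McFarland turbidity 0.5, then centrifuged and resuspended in fresh LB. Next, wells received 5×10^5 CFU/mL bacteria plus two-fold serially diluted EGF domain protein (triplicate). Finally, plates were shaken at 37° C and the no-growth concentration taken as MIC.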

[3] = system: Proteus vulgaris; assay: MIC against Gram-negative bacteria: Proteus vulgaris; conditions: 5×10^5 CFU/mL
Procedure, shortened: as §1

[4] = system: Proteus mirabilis; assay: MIC against Gram-negative bacteria: Proteus mirabilis; conditions: 5×10^5 CFU/mL
Procedure, shortened: as §1

[5] = system: Moraxella catarrhalis; assay: MIC against Gram-negative bacteria: Moraxella catarrhalis; conditions: 5×10^5 CFU/mL
Procedure, shortened: as §1

[6] = system: Aeromonas hydrophila; assay: MIC against Gram-negative bacteria: Aeromonas hydrophila; conditions: 5×10^5 CFU/mL
Procedure, shortened: as §1

[7] = system: Enterobacter cloacae; assay: MIC against Gram-negative bacteria: Enterobacter cloacae; conditions: 5×10^5 CFU/mL
Procedure, shortened: as §1

[8] = system: Citrobacter diversus; assay: MIC against Gram-negative bacteria: Citrobacter diversus; conditions: 5×10^5 CFU/mL
Procedure, shortened: as §1

[9] = system: Klebsiella pneumonia; assay: MIC against Gram-negative bacteria: Klebsiella pneumonia; conditions: 5×10^5 CFU/mL
Procedure, shortened: as §1

[10] = system: Serratia marcescens; assay: MIC against Gram-negative bacteria: Serratia marcescens; conditions: 5×10^5 CFU/mL
Procedure, shortened: as §1

[11] = system: E. coli BL21; assay: MIC against Gram-negative bacteria: E. coli BL21; conditions: 5×10^5 CFU/mL
Procedure, shortened: as §1

[12] = Pseudomonas aeruginosa, 96-well plate, 37° C., 10 h
[13] = Proteus vulgaris, 96-well plate, 37° C., 10 h
[14] = Proteus mirabilis, 96-well plate, 37° C., 10 h
[15] = Moraxella catarrhalis, 96-well plate, 37° C., 10 h
[16] = Aeromonas hydrophila, 96-well plate, 37° C., 10 h
[17] = Enterobacter cloacae, 96-well plate, 37° C., 10 h
[18] = Citrobacter diversus, 96-well plate, 37° C., 10 h
[19] = Klebsiella pneumonia, 96-well plate, 37° C., 10 h
[20] = Serratia marcescens, 96-well plate, 37° C., 10 h
[21] = E. coli BL21, 96-well plate, 37° C., 10 h
[22] = 10 h cultivation at 37° C., two-fold serial dilution
[23] = P. aeruginosa, 10 h cultivation at 37° C.
[24] = P. vulgaris, 10 h cultivation at 37° C.
[25] = P. mirabilis, 10 h cultivation at 37° C.
[26] = M. catarrhalis, 10 h cultivation at 37° C.
[27] = A. hydrophila, 10 h cultivation at 37° C.
[28] = E. cloacae, 10 h cultivation at 37° C.
[29] = C. diversus, 10 h cultivation at 37° C.
[30] = K. pneumonia, 10 h cultivation at 37° C.
[31] = S. marcescens, 10 h cultivation at 37° C.
[32] = E. coli BL21, 10 h cultivation at 37° C.

## PRT580 (CDCDPMGSQDGGRCDSHDDPALGLVSGQCRCKEHVVGTRCQQCRDGFFGLSISDRLGCRR; listed as Homo sapiens)
[1]
  MIC: 12.5 µg/mL
[2]; 96-well plate, 37° C., 10 h
  MIC against P. aeruginosa: 12.5 µg/mL
[3]; 96-well plate, 37° C., 10 h
  MIC against P. vulgaris: 50 µg/mL
[4]; 96-well plate, 37° C., 10 h
  MIC against P. mirabilis: 12.5 µg/mL
[5]; 96-well plate, 37° C., 10 h
  MIC against M. catarrhalis: 50 µg/mL
[6]; 96-well plate, 37° C., 10 h
  MIC against A. hydrophila: 25 µg/mL
[7]; 96-well plate, 37° C., 10 h
  MIC against E. cloacae: 12.5 µg/mL
[8]; 96-well plate, 37° C., 10 h
  MIC against C. diversus: 12.5 µg/mL
[9]; 96-well plate, 37° C., 10 h
  MIC against K. pneumonia: 25 µg/mL
[10]; 96-well plate, 37° C., 10 h
  MIC against S. marcescens: 12.5 µg/mL
[11]; 96-well plate, 37° C., 10 h
  MIC against E. coli BL21: 25 µg/mL

## PRT124 (ITDRCSPNMCEHDGRCYQSWDDFICYCELTGYKGETCH; listed as Homo sapiens)
[1]
  MIC: 12.5 µg/mL
[2]; [12]
  MIC (μg/mL) P. aeruginosa: 12.5 µg/mL
[3]; [13]
  MIC (μg/mL) P. vulgaris: 12.5 µg/mL
[4]; [14]
  MIC (μg/mL) P. mirabilis: 12.5 µg/mL
[5]; [15]
  MIC (μg/mL) M. catarrhalis: 12.5 µg/mL
[6]; [16]
  MIC (μg/mL) A. hydrophila: 12.5 µg/mL
[7]; [17]
  MIC (μg/mL) E. cloacae: 12.5 µg/mL
[8]; [18]
  MIC (μg/mL) C. diversus: 12.5 µg/mL
[9]; [19]
  MIC (μg/mL) K. pneumonia: 50 µg/mL
[10]; [20]
  MIC (μg/mL) S. marcescens: 12.5 µg/mL
[11]; [21]
  MIC (μg/mL) E. coli BL21: 50 µg/mL

## PRT502 (CECHGHAAECNVHGVCIACAHNTTGVHCEQCLPGFYGEPSRGTPGDCQP; listed as Homo sapiens)
[1]
  MIC: 25 µg/mL
[2]; 96-well plate, 37° C., 10 h
  MIC against P. aeruginosa: 12.5 µg/mL
[3]; 96-well plate, 37° C., 10 h
  MIC against P. vulgaris: 50 µg/mL
[4]; 96-well plate, 37° C., 10 h
  MIC against P. mirabilis: 12.5 µg/mL
[5]; 96-well plate, 37° C., 10 h
  MIC against M. catarrhalis: 12.5 µg/mL
[6]; 96-well plate, 37° C., 10 h
  MIC against A. hydrophila: 12.5 µg/mL
[7]; 96-well plate, 37° C., 10 h
  MIC against E. cloacae: 12.5 µg/mL
[8]; 96-well plate, 37° C., 10 h
  MIC against C. diversus: 12.5 µg/mL
[9]; 96-well plate, 37° C., 10 h
  MIC against K. pneumonia: 12.5 µg/mL
[10]; 96-well plate, 37° C., 10 h
  MIC against S. marcescens: 25 µg/mL
[11]; 96-well plate, 37° C., 10 h
  MIC against E. coli BL21: 12.5 µg/mL

## PRT1122 (DVDECLSDPCLHGGTCSDTVAGYICRCPETWGGRDCS; listed as Homo sapiens)
[1]
  MIC: 50 µg/mL
[2]; [22]
  MIC P. aeruginosa: 50 µg/mL
[3]; [22]
  MIC P. vulgaris: 50 µg/mL
[4]; [22]
  MIC P. mirabilis: 12.5 µg/mL
[5]; [22]
  MIC M. catarrhalis: 50 µg/mL
[6]; [22]
  MIC A. hydrophila: 25 µg/mL
[7]; [22]
  MIC E. cloacae: 50 µg/mL
[8]; [22]
  MIC C. diversus: 12.5 µg/mL
[9]; [22]
  MIC K. pneumonia: 12.5 µg/mL
[10]; [22]
  MIC S. marcescens: 12.5 µg/mL
[11]; [22]
  MIC E. coli BL21: 12.5 µg/mL

## PRT813 (FGVNCSSSCSCGGAPCHGVTGQCRCPPGRTGEDCE; listed as Homo sapiens)
[1]
  MIC: 50 µg/mL
[2]; [23]
  MIC (μg/mL) P. aeruginosa: 50 µg/mL
[3]; [24]
  MIC (μg/mL) P. vulgaris: 50 µg/mL
[4]; [25]
  MIC (μg/mL) P. mirabilis: 25 µg/mL
[5]; [26]
  MIC (μg/mL) M. catarrhalis: 25 µg/mL
[6]; [27]
  MIC (μg/mL) A. hydrophila: 50 µg/mL
[7]; [28]
  MIC (μg/mL) E. cloacae: 25 µg/mL
[8]; [29]
  MIC (μg/mL) C. diversus: 25 µg/mL
[9]; [30]
  MIC (μg/mL) K. pneumonia: 50 µg/mL
[10]; [31]
  MIC (μg/mL) S. marcescens: 12.5 µg/mL
[11]; [32]
  MIC (μg/mL) E. coli BL21: 50 µg/mL

## PRT245 (DIDECASGKVICPYNRRCVNTFGSYYCKCHIGFELQYIS; listed as Homo sapiens)
[1]
  MIC: 12.5 µg/mL
[2]; [23]
  MIC (μg/mL) P. aeruginosa: 12.5 µg/mL
[3]; [24]
  MIC (μg/mL) P. vulgaris: 12.5 µg/mL
[4]; [25]
  MIC (μg/mL) P. mirabilis: 25 µg/mL
[5]; [26]
  MIC (μg/mL) M. catarrhalis: 12.5 µg/mL
[6]; [27]
  MIC (μg/mL) A. hydrophila: 12.5 µg/mL
[7]; [28]
  MIC (μg/mL) E. cloacae: 12.5 µg/mL
[8]; [29]
  MIC (μg/mL) C. diversus: 25 µg/mL
[9]; [30]
  MIC (μg/mL) K. pneumonia: 12.5 µg/mL
[10]; [31]
  MIC (μg/mL) S. marcescens: 25 µg/mL
[11]; [32]
  MIC (μg/mL) E. coli BL21: 50 µg/mL

## PRT14 (PPKPCDSQPCFHGGTCQDWALGGGFTCSCPAGRGGAVCE; listed as Homo sapiens)
[1]
  MIC: 25 µg/mL
[2]; [12]
  MIC (μg/mL) P. aeruginosa: 25 µg/mL
[3]; [13]
  MIC (μg/mL) P. vulgaris: 50 µg/mL
[4]; [14]
  MIC (μg/mL) P. mirabilis: 25 µg/mL
[5]; [15]
  MIC (μg/mL) M. catarrhalis: 12.5 µg/mL
[6]; [16]
  MIC (μg/mL) A. hydrophila: 50 µg/mL
[7]; [17]
  MIC (μg/mL) E. cloacae: 25 µg/mL
[8]; [18]
  MIC (μg/mL) C. diversus: 25 µg/mL
[9]; [19]
  MIC (μg/mL) K. pneumonia: 12.5 µg/mL
[10]; [20]
  MIC (μg/mL) S. marcescens: 12.5 µg/mL
[11]; [21]
  MIC (μg/mL) E. coli BL21: 50 µg/mL

## PRT1360 (NKPLCLNNCYNRGRCVENECVCDEGFTGEDCS; listed as Homo sapiens)
[1]
  MIC: 12.5 µg/mL
[2]; Pseudomonas aeruginosa, 10 h cultivation at 37° C.
  MIC against P. aeruginosa: 50 µg/mL
[3]; Proteus vulgaris, 10 h cultivation at 37° C.
  MIC against P. vulgaris: 25 µg/mL
[4]; Proteus mirabilis, 10 h cultivation at 37° C.
  MIC against P. mirabilis: 12.5 µg/mL
[5]; Moraxella catarrhalis, 10 h cultivation at 37° C.
  MIC against M. catarrhalis: 50 µg/mL
[6]; Aeromonas hydrophila, 10 h cultivation at 37° C.
  MIC against A. hydrophila: 50 µg/mL
[7]; Enterobacter cloacae, 10 h cultivation at 37° C.
  MIC against E. cloacae: 12.5 µg/mL
[8]; Citrobacter diversus, 10 h cultivation at 37° C.
  MIC against C. diversus: 12.5 µg/mL
[9]; Klebsiella pneumonia, 10 h cultivation at 37° C.
  MIC against K. pneumonia: 25 µg/mL
[10]; Serratia marcescens, 10 h cultivation at 37° C.
  MIC against S. marcescens: 50 µg/mL
[11]; [32]
  MIC against E. coli BL21: 25 µg/mL

## PRT1297 (NACLSSPCKNNGTCTQDPVELYRCACPYSYKGKDCT; listed as Homo sapiens)
[1]
  MIC: 12.5 µg/mL
[2]; [12]
  MIC against P. aeruginosa: 12.5 µg/mL
[3]; [13]
  MIC against P. vulgaris: 12.5 µg/mL
[4]; [14]
  MIC against P. mirabilis: 25 µg/mL
[5]; [15]
  MIC against M. catarrhalis: 50 µg/mL
[6]; [16]
  MIC against A. hydrophila: 12.5 µg/mL
[7]; [17]
  MIC against E. cloacae: 50 µg/mL
[8]; [18]
  MIC against C. diversus: 25 µg/mL
[9]; [19]
  MIC against K. pneumonia: 25 µg/mL
[10]; [20]
  MIC against S. marcescens: 50 µg/mL
[11]; [21]
  MIC against E. coli BL21: 50 µg/mL

## PRT247 (GAAICQPPCRNGGSCVQPGRCRCPAGWRGDTCQ; listed as Homo sapiens)
[1]
  MIC: 12.5 µg/mL
[2]; [23]
  MIC (μg/mL) P. aeruginosa: 12.5 µg/mL
[3]; [24]
  MIC (μg/mL) P. vulgaris: 12.5 µg/mL
[4]; [25]
  MIC (μg/mL) P. mirabilis: 25 µg/mL
[5]; [26]
  MIC (μg/mL) M. catarrhalis: 100 µg/mL
[6]; [27]
  MIC (μg/mL) A. hydrophila: 12.5 µg/mL
[7]; [28]
  MIC (μg/mL) E. cloacae: 25 µg/mL
[8]; [29]
  MIC (μg/mL) C. diversus: 25 µg/mL
[9]; [30]
  MIC (μg/mL) K. pneumonia: 12.5 µg/mL
[10]; [31]
  MIC (μg/mL) S. marcescens: 25 µg/mL
[11]; [32]
  MIC (μg/mL) E. coli BL21: 12.5 µg/mL
